What was measured:
human mGlu5a receptor [1] = target: T1, human mGlu5a receptor (Homo sapiens (Human), UniProt P41594); test: Intracellular Ca2+ mobilization assay (mGlu5 PAM assay); assay type: cell-based; conditions: for mGlu5 PAM EC50 [nM] / EC50 (nM) mGlu5 PAM assay: HEK-293 cells with human mGlu5a, L-glutamate at EC20; for Activity profile: PAM = positive allosteric modulator, NAM = negative allosteric modulator; for Efficacy [%]: maximal response in % of maximal stimulatory effect of saturating L-glutamate
T1 sequence (P41594 other isoform, or with tags, fused parts or gaps): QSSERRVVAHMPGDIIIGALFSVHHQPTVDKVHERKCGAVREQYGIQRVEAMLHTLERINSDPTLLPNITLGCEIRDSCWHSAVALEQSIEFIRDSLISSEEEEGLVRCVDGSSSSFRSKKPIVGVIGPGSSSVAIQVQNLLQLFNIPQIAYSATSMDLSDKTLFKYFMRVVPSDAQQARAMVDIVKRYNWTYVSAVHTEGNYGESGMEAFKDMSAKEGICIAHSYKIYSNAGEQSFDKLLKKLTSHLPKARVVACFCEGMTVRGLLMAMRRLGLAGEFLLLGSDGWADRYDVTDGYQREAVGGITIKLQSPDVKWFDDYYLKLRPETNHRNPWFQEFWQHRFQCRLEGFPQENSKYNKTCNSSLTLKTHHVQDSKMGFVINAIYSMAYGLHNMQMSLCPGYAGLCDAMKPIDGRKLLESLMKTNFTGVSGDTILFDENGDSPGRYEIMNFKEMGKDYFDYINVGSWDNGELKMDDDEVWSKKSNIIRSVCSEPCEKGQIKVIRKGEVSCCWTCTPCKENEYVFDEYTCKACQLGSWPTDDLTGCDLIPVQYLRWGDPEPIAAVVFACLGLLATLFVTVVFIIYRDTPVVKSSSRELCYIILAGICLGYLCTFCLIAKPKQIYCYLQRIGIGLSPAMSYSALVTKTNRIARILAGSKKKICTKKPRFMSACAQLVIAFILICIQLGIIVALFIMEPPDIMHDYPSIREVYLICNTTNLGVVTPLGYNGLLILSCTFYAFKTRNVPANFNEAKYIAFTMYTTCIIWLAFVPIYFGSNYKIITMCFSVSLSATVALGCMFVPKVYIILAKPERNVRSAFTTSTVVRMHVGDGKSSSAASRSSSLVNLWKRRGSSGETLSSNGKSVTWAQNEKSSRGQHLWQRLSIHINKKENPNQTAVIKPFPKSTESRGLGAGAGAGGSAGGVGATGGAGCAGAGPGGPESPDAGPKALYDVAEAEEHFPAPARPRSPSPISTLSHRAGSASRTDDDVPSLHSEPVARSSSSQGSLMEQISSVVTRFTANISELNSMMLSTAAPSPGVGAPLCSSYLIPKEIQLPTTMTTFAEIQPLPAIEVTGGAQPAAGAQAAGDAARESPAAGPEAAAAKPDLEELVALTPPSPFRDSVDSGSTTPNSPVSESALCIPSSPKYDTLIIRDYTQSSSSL
Description: A monoclonal HEK-293 cell line stably transfected with a cDNA encoding for the human mGlu5a receptor was generated; for the work with mGlu5 Positive Allosteric Modulators (PAMs), a cell line with low receptor expression levels and low constitutive receptor activity was selected to allow the differentiation of agonistic versus PAM activity. Cells were cultured according to standard protocols (Freshney, 2000) in Dulbecco's Modified Eagle Medium with high glucose supplemented with 1 mM glutamine, 10% (vol/vol) heat-inactivated bovine calf serum, Penicillin/Streptomycin, 50 μg/ml hygromycin and 15 μg/ml blasticidin (all cell culture reagents and antibiotics from Invitrogen, Basel, Switzerland).
About 24 hrs before an experiment, 5×10^4 cells/well were seeded in poly-D-lysine coated, black/clear-bottomed 96-well plates. The cells were loaded with 2.5 μM Fluo-4AM in loading buffer (1×HBSS, 20 mM HEPES) for 1 hr at 37° C. and washed five times with loading buffer. The cells were transferred into a Functional Drug Screening System 7000 (Hamamatsu, Paris, France), and 11 half logarithmic serial dilutions of test compound at 37° C. were added and the cells were incubated for 10-30 min. with on-line recording of fluorescence. Following this pre-incubation step, the agonist L-glutamate was added to the cells at a concentration corresponding to EC20 (typically around 80 μM) with on-line recording of fluorescence; in order to account for day-to-day variations in the responsiveness of cells, the EC20 of glutamate was determined immediately ahead of each experiment by recording of a full dose-response curve of glutamate.
Responses were measured as peak increase in fluorescence minus basal (i.e. fluorescence without addition of L-glutamate), normalized to the maximal stimulatory effect obtained with saturating concentrations of L-glutamate. Graphs were plotted with the % maximal stimulatory using XLfit, a curve fitting program that iteratively plots the data using Levenburg Marquardt algorithm. The single site competition analysis equation used was y=A+((B−A)/(1+((x/C)D))), where y is the % maximal stimulatory effect, A is the minimum y, B is the maximum y, C is the EC50, x is the log 10 of the concentration of the competing compound and D is the slope of the curve (the Hill Coefficient). From these curves the EC50 (concentration at which half maximal stimulation was achieved), the Hill coefficient as well as the maximal response in % of the maximal stimulatory effect obtained with saturating concentrations of L-glutamate were calculated.
A depression of the signal observed after addition of the EC20 concentration of L-glutamate was indicative of an inhibitory activity of the test compound.

human mGlu5a receptor [2] = target: T1, human mGlu5a receptor; test: MPEP binding assay; conditions: [3H]MPEP 2 nM, 1 h at 4° C., EBNA cell membranes
Description: For binding experiments, cDNA encoding human mGlu 5a receptor was transiently transfected into EBNA cells using a procedure described by Schlaeger and Christensen [Cytotechnology 15:1-13 (1998)]. Cell membrane homogenates were stored at −80° C. until the day of assay where upon they were thawed and resuspended and polytronised in 15 mM Tris-HCl, 120 mM NaCl, 100 mM KCl, 25 mM CaCl2, 25 mM MgCl2 binding buffer at pH 7.4 to a final assay concentration of 20 μg protein/well.
Saturation isotherms were determined by addition of twelve [^3H]MPEP concentrations (0.04-100 nM) to these membranes (in a total volume of 200 μl) for 1 h at 4° C. Competition experiments were performed with a fixed concentration of [^3H]MPEP (2 nM) and IC50 values of test compounds evaluated using 11 concentrations (0.3-10,000 nM). Incubations were performed for 1 h at 4° C.
At the end of the incubation, membranes were filtered onto unifilter (96-well white microplate with bonded GF/C filter preincubated 1 h in 0.1% PEI in wash buffer, Packard BioScience, Meriden, Conn.) with a Filtermate 96 harvester (Packard BioScience) and washed 3 times with cold 50 mM Tris-HCl, pH 7.4 buffer. Nonspecific binding was measured in the presence of 10 μM MPEP. The radioactivity on the filter was counted (3 min) on a Packard Top-count microplate scintillation counter with quenching correction after addition of 45 μl of microscint 40 (Canberra Packard S. A., Zürich, Switzerland) and shaking for 20 min.

Structure (SMILES)	mGlu5 PAM EC50 [nM] (human mGlu5a receptor [1])	EC50 (nM) mGlu5 PAM assay (human mGlu5a receptor [1])	Activity profile (human mGlu5a receptor [1])	Ki (human mGlu5a receptor [2]) [nM]	also measured
CC1(C)COCCN1C(=O)c1ccc(C#Cc2cccc(F)c2)cn1 [drawing 5]	inactive				
CC1(C)COCCN1C(=O)c1ccc(C#Cc2cccc(Cl)c2)cn1 [drawing 7]	inactive				
CC1(C)COCCN1C(=O)c1ccc(C#Cc2cccc(Cl)c2)cn1 [Example 3, (3,3-Dimethyl-morpholin-4-yl)-[5-(3-chloro-phenylethynyl)-pyridin-2-yl]-methanone]		inactive	NAM	23	
O=C(c1ccc(C#Cc2cccc(Cl)c2)cn1)N1CCOCC1 [drawing 6]	inactive				
CC1(C)COCCN1C(=O)c1ncc(C#Cc2cccc(Cl)c2)cn1 [Example 4, (3,3-Dimethyl-morpholin-4-yl)-[5-(3-chloro-phenylethynyl)-pyrimidin-2-yl]-methanone]		inactive	NAM	67	
CC1(C)COCCN1C(=O)c1ccc(C#Cc2cccc(F)c2)cn1 [Example 1, (3,3-Dimethyl-morpholin-4-yl)-[5-(3-fluoro-phenylethynyl)-pyridin-2-yl]-methanone]		inactive	NAM	72	
O=C(c1ccc(C#Cc2cccc(Cl)c2)cn1)N1CCOCC1 [Example 2, [5-(3-Chloro-phenylethynyl)-pyridin-2-yl-morpholin-4-yl]-methanone]		inactive			
CC1(C)CN(C(=O)c2ccc(C#Cc3cccc(F)c3)cn2)CCO1 [Ref. 1 Ex. 35, reference compound]			PAM	201	
CC1(C)CN(C(=O)c2ccc(C#Cc3cccc(F)c3)cn2)CCO1 [drawing 3]					Efficacy [%] (human mGlu5a receptor [1]): 57%
CC1(C)COCCN1C(=O)c1ncc(C#Cc2cccc(Cl)c2)cn1 [drawing 8]	inactive				
CC1(C)CCCN(C(=O)c2ncc(C#Cc3ccccc3)cn2)C1 [Ref. 1 Ex. 46, reference compound]			PAM	315	
CC1(C)CCCN(C(=O)c2ncc(C#Cc3ccccc3)cn2)C1 [drawing 4]					Efficacy [%] (human mGlu5a receptor [1]): 59%
